Results reported in ChEMBL document CHEMBL3112450, “Synthesis and in vitro antitumor evaluation of primary amine substituted quinazoline linked benzimidazole” (Bioorg Med Chem Lett, 2014).

Assays:
Type in all cases: functional
SNB-75 = test: Cytotoxicity against human SNB75 cells assessed as cell growth at 10^-5 M after 48 hrs by SRB assay; conditions: SNB-75, 48 h, read-out: Activity
MDA-MB-468 = test: Cytotoxicity against human MDA-MB-468 cells assessed as cell growth at 10^-5 M after 48 hrs by SRB assay; conditions: MDA-MB-468, 48 h, read-out: Activity
BT-549 = test: Cytotoxicity against human BT549 cells assessed as cell growth at 10^-5 M after 48 hrs by SRB assay; conditions: BT-549, 48 h, read-out: Activity
[1] = Cytotoxicity against human Hs578T cells assessed as cell growth at 10^-5 M after 48 hrs by SRB assay; conditions: Hs-578T, read-out: Activity
MDA-MB-231 = test: Cytotoxicity against human MDA-MB-231 cells assessed as cell growth at 10^-5 M after 48 hrs by SRB assay; conditions: MDA-MB-231, 48 h, read-out: Activity
DU-145 = test: Cytotoxicity against human DU145 cells assessed as cell growth at 10^-5 M after 48 hrs by SRB assay; conditions: DU-145, 48 h, read-out: Activity
[2] = Cytotoxicity against human UO31 cells assessed as cell growth at 10^-5 M after 48 hrs by SRB assay; conditions: UO-31, 48 h, read-out: Activity
PC-3 = test: Cytotoxicity against human PC3 cells assessed as cell growth at 10^-5 M after 48 hrs by SRB assay; conditions: PC-3, 48 h, read-out: Activity
TK-10 = test: Cytotoxicity against human TK10 cells assessed as cell growth at 10^-5 M after 48 hrs by SRB assay; conditions: TK-10, 48 h, read-out: Activity
RXF 393 = test: Cytotoxicity against human RXF393 cells assessed as cell growth at 10^-5 M after 48 hrs by SRB assay; conditions: RXF 393, 48 h, read-out: Activity
SN12C = test: Cytotoxicity against human SN12C cells assessed as cell growth at 10^-5 M after 48 hrs by SRB assay; conditions: read-out: Activity
ACHN = test: Cytotoxicity against human ACHN cells assessed as cell growth at 10^-5 M after 48 hrs by SRB assay; conditions: read-out: Activity
CAKI-1 = test: Cytotoxicity against human Caki1 cells assessed as cell growth at 10^-5 M after 48 hrs by SRB assay; conditions: CAKI-1, 48 h, read-out: Activity
SK-OV-3 = test: Cytotoxicity against human SKOV3 cells assessed as cell growth at 10^-5 M after 48 hrs by SRB assay; conditions: SK-OV-3, 48 h, read-out: Activity
786-0 = test: Cytotoxicity against human 786-0 cells assessed as cell growth at 10^-5 M after 48 hrs by SRB assay; conditions: 786-0, 48 h, read-out: Activity
[3] = Cytotoxicity against human OVCAR4 cells assessed as cell growth at 10^-5 M after 48 hrs by SRB assay; conditions: OVCAR-4, 48 h, read-out: Activity
[4] = Cytotoxicity against human UACC257 cells assessed as cell growth at 10^-5 M after 48 hrs by SRB assay; conditions: UACC-257, 48 h, read-out: Activity
UACC-62 = test: Cytotoxicity against human UACC62 cells assessed as cell growth at 10^-5 M after 48 hrs by SRB assay; conditions: UACC-62, 48 h, read-out: Activity
SK-MEL-2 = test: Cytotoxicity against human SK-MEL-2 cells assessed as cell growth at 10^-5 M after 48 hrs by SRB assay; conditions: SK-MEL-2, 48 h, read-out: Activity
SK-MEL-28 = test: Cytotoxicity against human SK-MEL-28 cells assessed as cell growth at 10^-5 M after 48 hrs by SRB assay; conditions: SK-MEL-28, 48 h, read-out: Activity
MDA-MB-435 = test: Cytotoxicity against human MDA-MB-435 cells assessed as cell growth at 10^-5 M after 48 hrs by SRB assay; conditions: MDA-MB-435, 48 h, read-out: Activity
Malme-3M = test: Cytotoxicity against human MALME-3M cells assessed as cell growth at 10^-5 M after 48 hrs by SRB assay; conditions: read-out: Activity
LOX IMVI = test: Cytotoxicity against human LOXIMVI cells assessed as cell growth at 10^-5 M after 48 hrs by SRB assay; conditions: read-out: Activity
U-251 = test: Cytotoxicity against human U251 cells assessed as cell growth at 10^-5 M after 48 hrs by SRB assay; conditions: U-251, 48 h, read-out: Activity
SNB-19 = test: Cytotoxicity against human SNB19 cells assessed as cell growth at 10^-5 M after 48 hrs by SRB assay; conditions: SNB-19, 48 h, read-out: Activity
SF-268 = test: Cytotoxicity against human SF268 cells assessed as cell growth at 10^-5 M after 48 hrs by SRB assay; conditions: SF-268, 48 h, read-out: Activity
SW-620 = test: Cytotoxicity against human SW620 cells assessed as cell growth at 10^-5 M after 48 hrs by SRB assay; conditions: SW-620, 48 h, read-out: Activity
KM12 = test: Cytotoxicity against human KM12 cells assessed as cell growth at 10^-5 M after 48 hrs by SRB assay; conditions: KM12, 48 h, read-out: Activity
HT-29 = test: Cytotoxicity against human HT-29 cells assessed as cell growth at 10^-5 M after 48 hrs by SRB assay; conditions: HT-29, 48 h, read-out: Activity
HCT-15 = test: Cytotoxicity against human HCT15 cells assessed as cell growth at 10^-5 M after 48 hrs by SRB assay; conditions: HCT-15, 48 h, read-out: Activity
HCT-116 = test: Cytotoxicity against human HCT116 cells assessed as cell growth at 10^-5 M after 48 hrs by SRB assay; conditions: HCT-116, 48 h, read-out: Activity
NCI-H322M = test: Cytotoxicity against human NCI-H322M cells assessed as cell growth at 10^-5 M after 48 hrs by SRB assay; conditions: read-out: Activity
NCI-H226 = test: Cytotoxicity against human NCI-H226 cells assessed as cell growth at 10^-5 M after 48 hrs by SRB assay; conditions: NCI-H226, 48 h, read-out: Activity
HOP-62 = test: Cytotoxicity against human HOP62 cells assessed as cell growth at 10^-5 M after 48 hrs by SRB assay; conditions: HOP-62, 48 h, read-out: Activity
RPMI-8226 = test: Cytotoxicity against human RPMI8226 cells assessed as cell growth at 10^-5 M after 48 hrs by SRB assay; conditions: RPMI-8226, 48 h, read-out: Activity
K562 = test: Cytotoxicity against human K562 cells assessed as cell growth at 10^-5 M after 48 hrs by SRB assay; conditions: K562, 48 h, read-out: Activity
MOLT-4 = test: Cytotoxicity against human MOLT4 cells assessed as cell growth at 10^-5 M after 48 hrs by SRB assay; conditions: MOLT-4, 48 h, read-out: Activity

Compound | growth at 10 µM (SNB-75) | growth at 10 µM (MDA-MB-468) | growth at 10 µM (BT-549) | growth at 10 µM [1] | growth at 10 µM (MDA-MB-231) | growth at 10 µM (DU-145) | growth at 10 µM [2] | growth at 10 µM (PC-3) | growth at 10 µM (TK-10) | growth at 10 µM (RXF 393) | growth at 10 µM (SN12C) | growth at 10 µM (ACHN) | growth at 10 µM (CAKI-1) | growth at 10 µM (SK-OV-3) | growth at 10 µM (786-0) | growth at 10 µM [3] | growth at 10 µM [4] | growth at 10 µM (UACC-62) | growth at 10 µM (SK-MEL-2) | growth at 10 µM (SK-MEL-28) | further results
C=CCn1c(C)nc2ccc(Nc3nc(Sc4ccc(N)cc4)nc4ccccc34)cc21 | 98.2% | 106% | 87.9% | 98.1% | 80.5% | 114% | 89.5% | 81.1% | 107% | 144% | 93.9% | 101% | 90.5% | 124% | 102% | 88.5% | 110% | 83.1% | 109% | 104% | growth at 10 µM (MDA-MB-435): 96.9%; growth at 10 µM (Malme-3M): 123%; growth at 10 µM (LOX IMVI): 97%; growth at 10 µM (U-251): 91.3%; growth at 10 µM (SNB-19): 93.2%; growth at 10 µM (SF-268): 109%; growth at 10 µM (SW-620): 108%; growth at 10 µM (KM12): 96.8%; growth at 10 µM (HT-29): 97.3%; growth at 10 µM (HCT-15): 96.5%; growth at 10 µM (HCT-116): 93.2%; growth at 10 µM (NCI-H322M): 102%; growth at 10 µM (NCI-H226): 109%; growth at 10 µM (HOP-62): 104%; growth at 10 µM (RPMI-8226): 59.8%; growth at 10 µM (K562): 92.5%; growth at 10 µM (MOLT-4): 88.2%
C=CCn1c(C)nc2ccc(Nc3nc(Nc4ncccn4)nc4ccccc34)cc21 | 78.8% | 78.3% | 82.8% | 87.7% | 84.4% | 112% | 82.1% | 89.2% | 118% | 114% | 97.6% | 103% | 75.6% | 104% | 106% | 85.6% | 101% | 92.6% | 100% | 111% | growth at 10 µM (MDA-MB-435): 107%; growth at 10 µM (Malme-3M): 99%; growth at 10 µM (LOX IMVI): 85.3%; growth at 10 µM (U-251): 89.8%; growth at 10 µM (SNB-19): 97.6%; growth at 10 µM (SF-268): 94.8%; growth at 10 µM (SW-620): 100%; growth at 10 µM (KM12): 106%; growth at 10 µM (HT-29): 104%; growth at 10 µM (HCT-15): 111%; growth at 10 µM (HCT-116): 94.2%; growth at 10 µM (NCI-H322M): 100%; growth at 10 µM (NCI-H226): 92.2%; growth at 10 µM (HOP-62): 84.8%; growth at 10 µM (RPMI-8226): 70.7%; growth at 10 µM (K562): 83%; growth at 10 µM (MOLT-4): 97.2%
C=CCn1c(C)nc2ccc(Nc3nc(Nc4ccc(F)cc4)nc4ccccc34)cc21 | -68% | -90% | 21% | 50% | -8% | 47% | 33% | 16% | 40% | -92% | 11% | -54% | 42% | -74% | 43% | -26% | 66% | -69% | 4% | -91% | growth at 10 µM (MDA-MB-435): 24%; growth at 10 µM (Malme-3M): 63%; growth at 10 µM (LOX IMVI): 24%; growth at 10 µM (U-251): 17%; growth at 10 µM (SNB-19): 48%; growth at 10 µM (SF-268): 47%; growth at 10 µM (SW-620): 1%; growth at 10 µM (KM12): 22%; growth at 10 µM (HT-29): 5%; growth at 10 µM (HCT-15): 1%; growth at 10 µM (HCT-116): -11%; growth at 10 µM (NCI-H322M): 41%; growth at 10 µM (NCI-H226): -62%; growth at 10 µM (HOP-62): -70%; growth at 10 µM (RPMI-8226): -43%; growth at 10 µM (K562): 3%; growth at 10 µM (MOLT-4): -18%
